From PMC11510433, “Exploration of the Solubility Hyperspace of Selected Active Pharmaceutical Ingredients in Choline- and Betaine-Based Deep Eutectic Solvents: Machine Learning Modeling and Experimental Validation” (Molecules, 2024)
Read-outs that look alike come from different tables or passages of the source. Each block holds one compound with its values, some of them ahead of it.

Tests used:
[1] = shake-flask solubility of sulfonamides in choline chloride- and betaine-based deep eutectic solvents (new measurements); format: physicochemical
Experimental: The solubility measurements were preceded by the determination of the calibration curves for the studied sulfonamides. Stock solutions of these compounds were prepared in methanol and subsequently diluted. The obtained series of solutions with decreasing concentrations were then measured spectrophotometrically using an A360 spectrophotometer from AOE Instruments (Shanghai, China) in the wavelength range of 200 nm to 500 nm. Their characteristic wavelengths were determined, and the corresponding absorbance values were plotted against the concentrations of the solutions. Three separate curves were prepared, and the obtained values were averaged. The calibration curves were validated in terms of their linearity, expressed by the determination coefficient R^2, as well as the limits of detection (LOD) and quantification (LOQ).
For determining the solubility of the studied sulfonamides in different eutectic compositions, a standard shake-flask procedure was applied.
The first step in this procedure involved the preparation of the deep eutectic solvents, which was performed by combining a hydrogen bond donor with a hydrogen bond acceptor. The HBA:HBD molar ratio was set to 1:2. […] The eutectics were prepared by weighing appropriate amounts of the two counterparts in glass vessels and heating them until a homogenous solution was obtained.
The samples of sulfonamides in DESs were prepared by adding an excess amount of the solute to the test tube, followed by an addition of the specific eutectic. The saturated solutions obtained in this manner were placed in an Orbital Shaker Incubator ES-20/60 from Biosan (Riga, Latvia) and heated at 25 °C, 30 °C, 35 °C, or 40 °C for 24 h with stirring at 60 rev/min. Before the measurements, the samples were filtered using a 0.22 µm pore-size PTFE syringe filter. The spectra of the filtered solutions were recorded after the dilution with methanol in the 200 nm–500 nm wavelength range with a 1 nm resolution. […] The absorbance values found at the characteristic wavelengths were used together with the linear regression equations to calculate the concentration of the considered solutes. Simultaneously, for the computation of the mole fraction solubility, the density of the samples was determined by weighing 1 mL of the sample on a RADWAG (Radom, Poland) AS 110 R2.PLUS analytical balance with 0.1 mg precision. Three separate samples were measured for each system, and the values were averaged.

[2] = set-up: method as in ref 2014-Delgado-10.1007s10953-014-0169-0; details: 1-Propanol + water, ref 2014-Delgado-10.1007s10953-014-0169-0, cited from earlier work
[3] = set-up: method as in ref 2017-Zhong-10.1021acs.jced.7b00065; details: solvent 1-propanol, ref 2017-Zhong-10.1021acs.jced.7b00065, cited from earlier work
[4] = A:D 1:1, x*DES 1.0 (water 0.00), T 25.0 °C, ref 2024-Cysewski-10.3390molecules29102296, cited from earlier work
[5] = best-performing ChCl-TEG system, 1:2, 25 °C

Mole fraction solubility [1, 5]: 0.00124 mole fraction
SMILES: CCCN(CCC)S(=O)(=O)c1ccc(C(=O)O)cc1 [probenecid]

Mole fraction solubility ([1]; DES BI-DEG, HBA:HBD 1:2, 25°C): 0.67(±0.09) mole fraction ∙10^4
Mole fraction solubility ([1]; DES BI-DEG, HBA:HBD 1:2, 30°C): 0.70(±0.08) mole fraction ∙10^4
Mole fraction solubility ([1]; DES BI-DEG, HBA:HBD 1:2, 35°C): 0.75(±0.06) mole fraction ∙10^4
Mole fraction solubility ([1]; DES BI-DEG, HBA:HBD 1:2, 40°C): 0.79(±0.05) mole fraction ∙10^4
Mole fraction solubility ([1]; DES BI-ETG, HBA:HBD 1:2, 25°C): 0.55(±0.07) mole fraction ∙10^4
Mole fraction solubility ([1]; DES BI-ETG, HBA:HBD 1:2, 30°C): 0.58(±0.02) mole fraction ∙10^4
Mole fraction solubility ([1]; DES BI-ETG, HBA:HBD 1:2, 35°C): 0.62(±0.06) mole fraction ∙10^4
Mole fraction solubility ([1]; DES BI-ETG, HBA:HBD 1:2, 40°C): 0.67(±0.08) mole fraction ∙10^4
Mole fraction solubility ([1]; DES BI-P2D, HBA:HBD 1:2, 25°C): 0.41(±0.06) mole fraction ∙10^4
Mole fraction solubility ([1]; DES BI-P2D, HBA:HBD 1:2, 30°C): 0.46(±0.10) mole fraction ∙10^4
Mole fraction solubility ([1]; DES BI-P2D, HBA:HBD 1:2, 35°C): 0.49(±0.08) mole fraction ∙10^4
Mole fraction solubility ([1]; DES BI-P2D, HBA:HBD 1:2, 40°C): 0.52(±0.04) mole fraction ∙10^4
Mole fraction solubility ([1]; DES BI-TEG, HBA:HBD 1:2, 25°C): 0.69(±0.04) mole fraction ∙10^4
Mole fraction solubility ([1]; DES BI-TEG, HBA:HBD 1:2, 30°C): 0.72(±0.02) mole fraction ∙10^4
Mole fraction solubility ([1]; DES BI-TEG, HBA:HBD 1:2, 35°C): 0.77(±0.09) mole fraction ∙10^4
Mole fraction solubility ([1]; DES BI-TEG, HBA:HBD 1:2, 40°C): 0.81(±0.07) mole fraction ∙10^4
Mole fraction solubility ([1]; DES ChCl-DEG, HBA:HBD 1:2, 25°C): 0.71(±0.09) mole fraction ∙10^4
Mole fraction solubility ([1]; DES ChCl-DEG, HBA:HBD 1:2, 30°C): 0.75(±0.07) mole fraction ∙10^4
Mole fraction solubility ([1]; DES ChCl-DEG, HBA:HBD 1:2, 35°C): 0.80(±0.14) mole fraction ∙10^4
Mole fraction solubility ([1]; DES ChCl-DEG, HBA:HBD 1:2, 40°C): 0.83(±0.02) mole fraction ∙10^4
Mole fraction solubility ([1]; DES ChCl-ETG, HBA:HBD 1:2, 25°C): 0.62(±0.09) mole fraction ∙10^4
Mole fraction solubility ([1]; DES ChCl-ETG, HBA:HBD 1:2, 30°C): 0.65(±0.01) mole fraction ∙10^4
Mole fraction solubility ([1]; DES ChCl-ETG, HBA:HBD 1:2, 35°C): 0.69(±0.06) mole fraction ∙10^4
Mole fraction solubility ([1]; DES ChCl-ETG, HBA:HBD 1:2, 40°C): 0.72(±0.08) mole fraction ∙10^4
Mole fraction solubility ([1]; DES ChCl-P2D, HBA:HBD 1:2, 25°C): 0.50(±0.08) mole fraction ∙10^4
Mole fraction solubility ([1]; DES ChCl-P2D, HBA:HBD 1:2, 30°C): 0.53(±0.03) mole fraction ∙10^4
Mole fraction solubility ([1]; DES ChCl-P2D, HBA:HBD 1:2, 35°C): 0.56(±0.07) mole fraction ∙10^4
Mole fraction solubility ([1]; DES ChCl-P2D, HBA:HBD 1:2, 40°C): 0.59(±0.01) mole fraction ∙10^4
Mole fraction solubility ([1]; DES ChCl-TEG, HBA:HBD 1:2, 25°C): 0.75(±0.05) mole fraction ∙10^4
Mole fraction solubility ([1]; DES ChCl-TEG, HBA:HBD 1:2, 30°C): 0.78(±0.07) mole fraction ∙10^4
Mole fraction solubility ([1]; DES ChCl-TEG, HBA:HBD 1:2, 35°C): 0.82(±0.01) mole fraction ∙10^4
Mole fraction solubility ([1]; DES ChCl-TEG, HBA:HBD 1:2, 40°C): 0.86(±0.02) mole fraction ∙10^4
Mole fraction solubility [1, 5]: 0.000075 mole fraction
SMILES: O=C(O)c1cc(/N=N/c2ccc(S(=O)(=O)Nc3ccccn3)cc2)ccc1O [sulfasalazine]

SMILES: Cc1cc(C)nc(NS(=O)(=O)c2ccc(N)cc2)n1 [sulfamethazine]
log(x1)exp ([2]; x2* 0.0322, x3* 0.97, T 20.00 °C): -4.226
log(x1)exp ([2]; x2* 0.0322, x3* 0.97, T 25.00 °C): -4.133
log(x1)exp ([2]; x2* 0.0322, x3* 0.97, T 30.00 °C): -4.044

SMILES: Cn1c(=O)c2c(ncn2C)n(C)c1=O [caffeine]
log(x1)exp ([3]; T 14.86 °C): -2.932
log(x1)exp ([3]; T 24.96 °C): -2.752
log(x1)exp ([3]; T 34.94 °C): -2.550

SMILES: CC(C)Cc1ccc(C(C)C(=O)O)cc1 (stereo not shown) [ibuprofen]
log(x1)exp ([4]; choline chloride + DEG): -0.616
log(x1)exp ([4]; choline chloride + P2D): -0.793
log(x1)exp ([4]; choline chloride + TEG): -0.580
